# Results: patent US8486974B2 (priority 2007, dated 2013)
# Entries after “also recorded” stand apart in the source; their conditions may differ. Like-named read-outs stand apart in the source and are kept apart here.
# Assays:
# GPIIb/IIIa = assay: Flow cytometry of activated GPIIb/IIIa (PAC-1) on platelets; type: cell-based, human; conditions: concentrations at which aspirin has no effect
# Method: In order to analyze receptor expression on the surface of individual platelets and to minimize platelet activation caused by sample preparation procedures, no stirring or vortexing steps were used. The abundance of activated GPIIb/IIIa and P-selectin on the surface of platelets in the presence and absence of inhibitors was measured by flow cytometry. Platelet samples were first activated with agonists either collagen or ADP. When platelet aggregation reached 50% maximal light transmission the reaction was terminated by 10-fold dilution with physiologic saline. Resting platelets were used as control. In most of the experiments, platelets were preincubated with inhibitors for 10 min prior to the addition of agonists. Platelet samples were then incubated in the dark without stirring for 5 min at room temperature in the presence of saturating concentrations (10 μg/ml) of P-selectin (CD62P-APC). The activated GPIIb/IIIa platelet receptors were measured using PAC-1 monoclonal antibody at the same concentration as above. PAC-1 specifically recognizes an epitope on the high-affinity GPIIb/IIIa complex of activated platelets at or near the […]. Following incubation, samples were diluted in FACS Flow fluid and analyzed within 5 min using a BD FACSArray (BD Biosciences, Oxford, UK). Flow cytometry was performed on single stained platelet samples as described before^3. The instrument was set up to measure the size (forward scatter), granularity (side scatter) and cell fluorescence. A two-dimensional analysis gate of forward and side scatter was drawn in order to include single platelets and exclude platelet aggregates and microparticles. Antibody binding was measured by analyzing individual platelets for fluorescence. The mean fluorescence intensity was determined after correction for cell autofluorescence. For each sample, the fluorescence was analyzed using a logarithmic scale. Fluorescence histograms were obtained for 10,000 individual events. Data were analyzed using Cytometer RXP software and expressed as a percentage of control fluorescence in arbitrary units.
# [1] = tested on: ADP-induced platelet aggregation; assay: ADP-induced platelet aggregation in PRP; type: cell-based, human
# Method: (§1) Blood was collected from healthy volunteers who had not taken any drugs known to affect platelet function for at least 14 days prior to the study. Platelet rich plasma (PRP) and washed platelet suspensions (2.5×10^8 platelets/ml) were prepared from blood as previously described.
# (§2) Platelet aggregation was measured by light aggregometry as previously described. Briefly, PRP and washed platelet samples (2.5×10^8/ml) were placed in a whole blood ionized calcium lumi-aggregometer (Chronolog Corp., Havertown, Pa., U.S.A), and (BIO/DATA CORPORATION) and incubated for 10 min at 37° C., with stirring at 900 r.p.m., prior to the addition of aggregating agents. Aggregation was initiated by the addition of agonists, and monitored by Aggro-Link software for at least 6 min. For experiments using inhibitors, aggregation was initiated after 10 min preincubation with these compounds
# (§3) Collagen at different concentrations (3-5 ug/ml) was also used to induce platelet aggregation. The submaximal concentrations of agonists, i.e. the concentrations that gave approximately 95% of the maximal aggregation were used to study the effects of inhibitors of aggregation. Results were expressed in percent changes in maximal light transmission, with 100% representing light transmission of platelet medium alone.
# in vitro = conditions: human, plasma, pH 7.4
# [2] = Hydrolysis in the presence of human intestinal microsomes (HIM), with or without esterase inhibitors; type: in vitro ADME; conditions: 0.1 mM, pH 7.4
# [3] = Hydrolysis in rabbit plasma; type: in vitro ADME
# Method: Pooled plasma/serum solutions (4 ml) were prepared to the correct strength by dilution of plasma with phosphate buffer pH 7.4 (e.g. for a 10% solution 0.4 ml of plasma/serum was added to 3.6 ml of phosphate buffer pH 7.4). Following equilibration of the plasma/serum sample at 37±0.5° C. 100 μl of a stock solution of test compound in acetonitrile (1×10^−4 M) was added and 250 μl aliquots were removed at specified time intervals. Samples were transferred to 1.5 ml Eppendorf tubes containing 500 μl of a 2% w/v solution of nSO4.7H2O (water:acetonitrile, 1:1). Tubes were vortexed for 2 minutes, then centrifuged at 10,000 rpm for 3 minutes at room temperature. Supernatant was aspirated off and analysed by HPLC. The concentration of test compound and metabolites were determined with reference to calibration curves run on that day in the same concentration range and under the same experimental conditions. […] The metabolic fate of the esters under these conditions was also determined by RPHPLC by measuring the concentration of drug and metabolites in the medium as a function of time. […] The BuChE activity of plasma and microsomal samples was determined using the Ellman assay (Ellman et al., 1964). […]
# [4] = tested on: collagen-induced human platelet aggregation; assay: Collagen-induced human platelet aggregation in vitro; type: cell-based; conditions: listed as ISAS
# Method: as §1, §2, §3
# [5] = tested on: human platelet aggregation to arachidonic acid; assay: Human platelet aggregation to arachidonic acid in platelet rich plasma; type: cell-based
# Method: as §1, §2
# [6] = target: T1, purified human serum BuChE (Homo sapiens, UniProt P06276); assay: Hydrolysis by purified human serum butyrylcholinesterase; type: in vitro ADME; conditions: purified butyrylcholinesterase
# T1 construct: Purified human serum butyrylcholinesterase (EC 3.1.1.8); purchased Sigma-Aldrich; host or cells: human serum
# Method: (§4) Pooled plasma/serum solutions (4 ml) were prepared to the correct strength by dilution of plasma with phosphate buffer pH 7.4 (e.g. for a 10% solution 0.4 ml of plasma/serum was added to 3.6 ml of phosphate buffer pH 7.4). Following equilibration of the plasma/serum sample at 37±0.5° C. 100 μl of a stock solution of test compound in acetonitrile (1×10^−4 M) was added and 250 μl aliquots were removed at specified time intervals. Samples were transferred to 1.5 ml Eppendorf tubes containing 500 μl of a 2% w/v solution of nSO4.7H2O (water:acetonitrile, 1:1). Tubes were vortexed for 2 minutes, then centrifuged at 10,000 rpm for 3 minutes at room temperature. Supernatant was aspirated off and analysed by HPLC. The concentration of test compound and metabolites were determined with reference to calibration curves run on that day in the same concentration range and under the same experimental conditions. In order to mimic conditions during the first passage of the drugs after intestinal absorption selected compounds were incubated in phosphate buffer at 37° C. in the presence of microsomes from human liver (HLM) and intestinal epithelium (HIM). The metabolic fate of the esters under these conditions was also determined by RPHPLC by measuring the concentration of drug and metabolites in the medium as a function of time. The identity of participating enzymes was confirmed by using purified enzyme in the case of plasma (BuChE) and by repeating the hydrolysis experiments in the presence of esterase specific inhibitors—isoOMPA for BuChE and BNPP for carboxylesterase. The BuChE activity of plasma and microsomal samples was determined using the Ellman assay (Ellman et al., 1964).
# [7] = Hydrolysis in human blood; type: in vitro ADME
# [8] = type: in vitro ADME; conditions: 0.1 mM, pH 7.4
# Method: as §4
# Qualitative hydrolysis screening of Is-2-aspirinate-5-salicylate 2 (0.1 mM) was studied using guinea pig, hamster, rabbit and monkey plasma. The purpose of this test was to determine a suitable species for biological testing and preclinical development. The results were also expected to confirm the role of the human enzymes already identified because these are variously distributed in laboratory animals.
# TXB2 synthesis = assay: Inhibition of TXB2 synthesis in clotting whole blood (ELISA); type: cell-based; conditions: 1 hour at 37° C., listed as ISAS
# Method: TXA2 is highly evanescent and unsuitable for direct measurement but its metabolite TXB2 is generally believed to provide a useful index of the parent. […] The samples were then centrifuged. Serum was collected and TXB2 was measured using enzyme linked immunosorbent assay (ELISA) kits obtained from Cayman Chemicals.
# [9] = female, human, 0.1 mM, pH 7.4
# T1 sequence (P06276 29-602): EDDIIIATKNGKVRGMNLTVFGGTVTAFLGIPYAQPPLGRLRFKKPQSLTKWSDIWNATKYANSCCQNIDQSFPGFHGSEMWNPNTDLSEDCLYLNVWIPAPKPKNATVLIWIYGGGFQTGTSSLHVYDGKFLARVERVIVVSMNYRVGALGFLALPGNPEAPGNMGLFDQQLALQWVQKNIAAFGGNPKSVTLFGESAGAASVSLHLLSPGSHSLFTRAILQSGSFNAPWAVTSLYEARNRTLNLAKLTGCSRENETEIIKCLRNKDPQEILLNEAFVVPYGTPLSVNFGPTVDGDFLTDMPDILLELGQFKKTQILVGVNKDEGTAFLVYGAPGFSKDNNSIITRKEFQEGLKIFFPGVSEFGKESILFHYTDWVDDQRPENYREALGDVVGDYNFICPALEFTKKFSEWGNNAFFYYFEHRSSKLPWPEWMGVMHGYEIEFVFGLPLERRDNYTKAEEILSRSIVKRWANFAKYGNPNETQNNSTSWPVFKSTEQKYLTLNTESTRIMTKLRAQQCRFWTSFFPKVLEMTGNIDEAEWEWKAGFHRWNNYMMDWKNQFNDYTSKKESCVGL
structure (smiles),measurement,setting,value
"CC(=O)Oc1ccccc1C(=O)O[C@H]1CO[C@H]2[C@@H]1OC[C@H]2OC(=O)c1ccccc1O [Compound 2, Isosorbide-2-aspirinate-5-salicylate]",constitutive platelet glyco-protein expression,GPIIb/IIIa,dampens constitutive platelet glyco-protein expression
same,"potency relative to aspirin, inhibition of ADP-induced platelet aggregation",[1],significantly more potent than aspirin
same,half-life at 2.4 µM,in vitro,2 min
same,Drug disappearance,[2],5 min
same,Drug disappearance: drug left,[2]; 60 min,9.4 μM left
same,Drug disappearance,"[3]; 50% Rabbit Plasma, conc drug 0.1 mM",20 min
same,Drug disappearance time,"[3]; rabbit, 0.1 mM, pH 7.4",10 min
same,"potency relative to aspirin, inhibition of collagen-induced human platelet aggregation",[4],significantly more potent than aspirin; also recorded: significantly more potent than ASA
same,"potency relative to aspirin, inhibition of arachidonic acid-induced human platelet aggregation",[5],significantly more potent than aspirin
same,conversion to aspirin in the presence of purified butyrylcholinesterase,[6],almost complete conversion to aspirin
same,half-life,[7],< 2 min
same,Drug disappearance time,"[8]; guinea pig, 1 hr",present after 1 hr
same,Drug disappearance time,[8]; hamster,20 min
same,Drug disappearance time,[8]; monkey,5 min
same,inhibition of TXB2 (TXA2) synthesis,TXB2 synthesis,effective in preventing the TXA2 synthesis; also recorded: significantly more potent than aspirin
same,Drug disappearance,[9],10 min
